Data published in patent US8846704B2, “Thiopyrimidine-based compounds and uses thereof” (YM Biosciences Austraila Pty Ltd, priority 2007, dated 2014).

Assays:
BaF3 wild-type cells = experiment: Cellular screening, BaF3 wild-type cells, Alamar Blue; assay type: cell-based; settings: Mus musculus, 40 hr, read-out: BAF3wt IC50_nM
Protocol: (§1) For screening purposes, compounds were diluted in 96 well plates at a concentration of 20 μM. Plates were warmed at 37° C. for 30 minutes before the assay was performed.
(§2) The growth factor dependant myelomonocytic cell line BaF3 bearing the pTET-off plasmid (Clontech) was transfected with either pTELJAK2 or pTELJAK3, and the transfected cells were selected for growth-factor independent cell growth. The BaF3 wild-type cells were cultured in DMEM containing 10% FCS, 10% WEHI 3B conditioned medium. The BaF3 TELJAK cells ([…]) were cultured in DMEM 10% Tet-System Approved FBS (without WEHI 3B conditioned medium).
(§3) Cell suspensions were prepared by harvesting cells from culture (the cells used in this test were in late log phase growth with high viability.) Cells were diluted in the appropriate growth medium, as described above, to 1.1× final concentration (from 50,000 cell/mL to 200,000 cell/mL, depending on cell line).
(§4) Compounds to be tested were added (10 μL, 10× final concentration) to a flat bottomed 96-well plate. The cellular suspension (90 μL per well) was then added, and the plate incubated for 40 hr at 37° C., 5% CO2. Alamar Blue 10 μL per well was added and the plates returned to the incubator for a further 4-6 hours. The plates were then read at 544 nm.

[1] = target: T1, BaF3 TELJAK2 cells (BafT_J2) (Homo sapiens, UniProt O60674); experiment: Cellular screening, BaF3 TEL:JAK2 cells, Alamar Blue; assay type: cell-based; settings: 40 hr, read-out: BafT_J2 IC50_nM
T1 construct: fused on or other part: TEL (ETV6) N-terminal part, coding nucleotides 1-487, serves as the oligomerising partner; It is fused through a Sal I site to the JAK2 kinase domain and expressed from pTRE2 in BaF3 cells bearing pTET-off; P41212 (Transcription factor ETV6)
T1 sequence (O60674 whole entry, change not shown, the tested form may be a part): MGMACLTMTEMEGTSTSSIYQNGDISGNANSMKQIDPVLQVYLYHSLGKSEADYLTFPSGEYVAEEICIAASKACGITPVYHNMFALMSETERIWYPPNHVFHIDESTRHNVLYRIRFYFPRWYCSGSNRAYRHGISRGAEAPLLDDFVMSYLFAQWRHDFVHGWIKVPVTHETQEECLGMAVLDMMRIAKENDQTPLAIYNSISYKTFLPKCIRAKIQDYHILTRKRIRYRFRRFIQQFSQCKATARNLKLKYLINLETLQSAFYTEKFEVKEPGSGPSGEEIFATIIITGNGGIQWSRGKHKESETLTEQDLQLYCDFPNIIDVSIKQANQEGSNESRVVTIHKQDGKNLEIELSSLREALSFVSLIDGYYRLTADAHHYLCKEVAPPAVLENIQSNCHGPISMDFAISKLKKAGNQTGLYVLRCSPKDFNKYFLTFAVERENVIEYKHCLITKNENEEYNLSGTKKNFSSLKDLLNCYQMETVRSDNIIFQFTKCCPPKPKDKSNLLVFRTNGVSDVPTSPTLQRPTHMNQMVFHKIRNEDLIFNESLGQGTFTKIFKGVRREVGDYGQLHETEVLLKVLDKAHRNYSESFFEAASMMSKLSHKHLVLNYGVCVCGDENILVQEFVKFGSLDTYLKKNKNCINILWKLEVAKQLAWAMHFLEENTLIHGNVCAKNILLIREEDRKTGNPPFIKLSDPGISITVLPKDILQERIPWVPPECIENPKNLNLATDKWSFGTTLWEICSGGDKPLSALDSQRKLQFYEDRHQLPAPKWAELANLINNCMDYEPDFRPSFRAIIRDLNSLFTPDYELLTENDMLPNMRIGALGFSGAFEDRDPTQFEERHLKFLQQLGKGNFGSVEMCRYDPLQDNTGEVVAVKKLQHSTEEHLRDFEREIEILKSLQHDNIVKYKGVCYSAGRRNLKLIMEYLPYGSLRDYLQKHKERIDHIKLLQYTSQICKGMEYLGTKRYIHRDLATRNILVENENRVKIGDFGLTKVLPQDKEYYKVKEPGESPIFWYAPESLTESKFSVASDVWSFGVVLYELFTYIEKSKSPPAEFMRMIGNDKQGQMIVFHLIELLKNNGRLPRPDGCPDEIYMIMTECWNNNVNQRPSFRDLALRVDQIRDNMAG
Protocol: as §1
The coding region encompassing nucleotides 1-487 of TEL was amplified by PCR using the oligonucleotides STEL (5′-GGAGGATCCTGATCTCTCTCGCTGTGAGAC-3′) [SEQ ID NO 14] and 3TEL (5′-AGGC GTCGACTTCTTCTTCATGGTTCTG-3′) [SEQ ID NO 15] and U937 mRNA as a template. A […] restriction site was incorporated into the STEL primer, and a Sal I restriction site was incorporated into the 3TEL primer. The regions encompassing the kinase domain of JAK2 (nucleotides 2994-3914; JAK2F 5′-ACGC GTCGACGGTGCCTTTGAAGACCGGGAT-3′ [SEQ ID NO 16]; JAK2R 5′-ATAGTTTAGCGGCCGCTCAGAATGAAGGTCATTT-3′) [SEQ ID NO 17] and JAK3 (nucleotides 2520-3469; JAK3F 5′-GAAGTCGACTATGCCTGCCAAGACCCCACGATCTT-3′) [SEQ ID NO 18] were generated by PCR using Taq DNA polymerase (Gibco/BRL) and […] as a template. A Sal I restriction site was incorporated into the forward primer of JAK2 and JAK3, a Not I site was incorporated into the JAK2 reverse primer and a Xba I site was added to the reverse primer of JAK3.
A TEL/Jak2 fusion was generated by digestion of the TELPCR product with BamH I/Sal I restriction enzymes, digestion of the JAK2 PCR product with Sal I/Not I restriction enzymes, followed by ligation and subcloning of the ligation product into the mammalian expression Vector pTRE 2 (Clontech), which was prepared by digestion with BamH I-Not I restriction enzymes, to give the TEL/Jak2 fusion plasmid pTELJAK2.
as §2, §3, §4

CTLL2 = experiment: Cellular screening, CTLL2 cells, Alamar Blue; assay type: cell-based; settings: Mus musculus, CTLL-2, read-out: CTLL2 IC50_nM
Protocol: as §3, §4

human JAK3 = target: T2, human JAK3 (Homo sapiens, UniProt P52333); experiment: Alphascreen tyrosine kinase enzyme assay, JAK3 kinase domain; assay type: biochemical; settings: read-out: JAK3 IC50_nM
T2 construct: The kinase domain of human JAK3 was amplified; GST (N); made in house; host or cells: Sf9 insect cells (baculovirus)
T2 sequence (P52333 822-1111 limits assumed): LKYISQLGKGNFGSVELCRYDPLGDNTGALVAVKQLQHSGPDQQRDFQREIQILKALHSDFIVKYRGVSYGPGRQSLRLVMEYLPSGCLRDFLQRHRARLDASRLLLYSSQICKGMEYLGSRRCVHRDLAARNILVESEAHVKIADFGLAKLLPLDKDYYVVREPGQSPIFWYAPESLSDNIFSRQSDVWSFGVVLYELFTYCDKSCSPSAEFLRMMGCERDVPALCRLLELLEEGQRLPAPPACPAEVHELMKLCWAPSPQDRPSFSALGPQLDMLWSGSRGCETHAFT
Protocol: (§5) For screening purposes, compounds (in 100% DMSO) were warmed at 37 degrees for at least 20 minutes before use. A […] stock was initially made in assay buffer, where the final concentration of DMSO was 0.3%. The stocks were then diluted in 384 well Optiplates (Packard) where the final concentration of the compound was […].
The kinase domain of human JAK3 was amplified from U937mRNA using the polymerase chain reaction with the following primers: […]
The JAK3 PCR products were cloned into the pDest20 destination expression vector (Gibco). The JAK3 plasmid was then transformed into competent DH10Bac cells (Gibco), and the recombinant baculovirus was prepared via Sf9 insect cell transfection.
(§6) Baculovirus preparations from each of the constructs were infected into either one or five liters of Sf9 cells (Invitrogen) grown in SF-900 medium (Invitrogen) to a cell density of approximately 1-2×10^6 cells/ml. Cells were infected with virus at a MOI of 0.8-3.0. Cells were harvested and lysed. Tyrosine kinase domains were purified by affinity chromatography on a glutathione-agarose column (Scientifix Pty. Ltd. catalog #: GSH-200).
(§7) Kinase assays were performed in 384 well Optiplates (Packard) using an Alphascreen Protein Tyrosine Kinase PY100 detection kit The compounds were pre-incubated with affinity purified PTK domain in the presence of phosphotyrosine assay buffer (10 mM HEPES, pH 7.5, 100 mM MgCl2, 25 mM NaCl, […] and 0.1% Tween 20) for 20 minutes. The compounds were then incubated with substrate in the presence of ATP. The substrate used was susbtrate-1 with the sequence biotin-EGPWLEEEEEAYGWMDF-NH2 [SEQ. ID. NO. 13] (final concentration […]). For HCK 80 μm ATP was used and incubated for 60 minutes. Alphascreen phosphotyrosine acceptor beads followed by streptavidin donor beads at a concentration of 1/100 in stop buffer were added to each well under subdued light and incubated for 2-3 hours., The Alphascreen plates were read on a Packard Fusion Alpha instrument.

human JAK2 = target: T3, human JAK2 (Homo sapiens, UniProt O60674); experiment: Alphascreen tyrosine kinase enzyme assay, JAK2 kinase domain; assay type: biochemical; settings: read-out: JAK2 IC50_nM
T3 construct: The kinase domain of human JAK2 was amplified; GST (N); made in house; host or cells: Sf9 insect cells (baculovirus)
T3 sequence (O60674 849-1124 limits assumed): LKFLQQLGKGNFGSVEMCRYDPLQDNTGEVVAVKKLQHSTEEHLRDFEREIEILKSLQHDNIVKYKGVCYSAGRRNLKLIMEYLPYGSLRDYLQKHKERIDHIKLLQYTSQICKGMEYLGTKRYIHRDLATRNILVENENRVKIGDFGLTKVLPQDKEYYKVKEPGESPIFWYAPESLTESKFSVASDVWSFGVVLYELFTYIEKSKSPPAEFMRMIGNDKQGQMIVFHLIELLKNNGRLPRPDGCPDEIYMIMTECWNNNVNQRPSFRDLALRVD
Protocol: as §5
The kinase domain of human JAK2 was amplified from U937mRNA using the polymerase chain reaction with the following primers: […]
The JAK2 PCR products were cloned into the pDest20 destination vector (Gibco). The JAK2 plasmid was then transformed into competent DH10Bac cells (Gibco), and the recombinant baculovirus was prepared via Sf9 insect cell transfection.
as §6, §7

human JAK1 = target: T4, human JAK1 (Homo sapiens, UniProt P23458); experiment: Alphascreen tyrosine kinase enzyme assay, JAK1 kinase domain; assay type: biochemical; settings: read-out: JAK1 IC50_nM
T4 construct: The kinase domain of human JAK1 was amplified; GST (N); made in house; host or cells: Sf9 insect cells (baculovirus)
T4 sequence (P23458 875-1153 limits assumed): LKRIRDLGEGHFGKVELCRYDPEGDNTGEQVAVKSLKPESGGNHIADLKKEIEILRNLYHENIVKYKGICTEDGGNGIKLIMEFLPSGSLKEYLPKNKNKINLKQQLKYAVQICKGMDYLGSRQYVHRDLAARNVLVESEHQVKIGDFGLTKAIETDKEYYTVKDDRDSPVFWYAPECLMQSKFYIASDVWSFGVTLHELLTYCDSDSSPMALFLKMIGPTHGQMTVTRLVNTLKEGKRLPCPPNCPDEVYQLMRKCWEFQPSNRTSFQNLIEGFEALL
Protocol: as §5
The kinase domain of human JAK1 was amplified from U937mRNA using the polymerase chain reaction with the following primers: […]
The JAK1 PCR products were cloned into the pDest20 destination vector (Gibco). The JAK1 plasmid was then transformed into competent DH10Bac cells (Gibco), and the recombinant baculovirus was prepared via Sf9 insect cell transfection.
as §6, §7

Row | Compound | IC50 (BaF3 wild-type cells) [µM] | GI50 [1] [µM] | IC50 (CTLL2) [nM] | IC50 (human JAK3) [nM] | IC50 (human JAK2) [nM] | IC50 (human JAK1) [nM]
1 | N#CCc1cn(Cc2ccc(Sc3ccnc(Nc4ccc(N5CCOCC5)cc4)n3)cc2)cn1 [Compound 90, 2-(1-(4-(2-(4-Morpholinophenylamino)pyrimidin-4-ylthio)benzyl)-1H-imidazol-4-yl)acetonitrile] | < 20 | < 5 | < 5000 | < 500 | > 1000 | –
2 | Cc1cnc(Nc2ccc(N3CCOCC3)cc2)nc1Sc1ccc(N)c(C)c1Cl [Compound 169, 4-(4-ao-2-chloro-3-methylphenylthio)-5-methyl-N-(4-morpholinophenyl)pyrimidin-2-ae] | – | – | – | < 100 | > 1000 | > 1000
3 | C=CC(=O)Nc1ccc(Sc2ccnc(Nc3cccc(S(=O)(=O)NCCC(C)C)c3)n2)cc1 [Compound 363, N-(4-(2-(3-(N-isopentylsulfamoyl)phenylao)pyrimidin-4-ylthio)phenyl)acrylamide] | – | – | – | < 100 | > 1000 | –
4 | CC#CC(=O)Nc1cccc(Sc2ccnc(Nc3ccc(N4CCOCC4)cc3)n2)c1 [Compound 331, N-(3-(2-(4-morpholinophenylao)pyrimidin-4-ylthio)phenyl)but-2-ynamide] | – | – | – | < 500 | > 1000 | –
5 | C=CC(=O)Nc1cccc(Nc2nccc(Sc3ncccn3)n2)c1 [Compound 3, N-(3-(4-(pyrimidin-2-ylthio)pyrimidin-2-ylao)phenyl)acrylamide] | – | – | < 5000 | < 100 | > 1000 | > 1000
6 | C=CC(=O)Nc1ccc(Sc2nc(Nc3ccc(N4CCOCC4)cc3)ncc2C)c(Cl)c1 [Compound 252, N-(3-chloro-4-(5-methyl-2-(4-morpholinophenylao)pyrimidin-4-ylthio)phenyl)acrylamide] | > 20 | > 20 | < 1000 | < 100 | > 1000 | –
7 | Cc1cnc(Nc2ccc(N3CCOCC3)cc2)nc1Sc1ccc(Cn2cnc(C#N)c2C#N)cc1 [Compound 221, 1-(4-(5-methyl-2-(4-morpholinophenylao)pyrimidin-4-ylthio)benzyl)-1H-imidazole-4,5-dicarbonitrile] | < 1 | – | < 1000 | < 500 | > 1000 | –
